The subject of assay [1] is NCI-H1299 cells. Description: Induction of polyploidy in H1299. The assay is classed as cell-based, Human. Conditions: NCI-H1299, 48 hours. As to the method:
To determine the induction of polyploidy in H1299 cells, NCI-H1299 were seeded (4K/well) into 96-well culture plates (tissue culture grade, black, flat-clear bottom) and incubated overnight to produce cell-to-plate adherence. Inhibitors at varying concentrations were added into duplicate wells containing cells and culture media (RPMI 1640, 10% fetal calf serum) and incubated at 37 C for 48 hours. The plates were then washed with PBS and the adherent cells fixed by incubating with 3% formalin for 1 hour. After washing four times with PBS, the cells were then stained with Hoechst and subjected to fluorescent (360 i/460e) microscopic high content analysis to determine the effect of inhibitors on nuclear size. Polyploid cells (≧4N) were defined as those having nuclear area>750μ^2. Potency was expressed as the concentration of inhibitor necessary to induce polyploidy in 15% of cells (EC15) and was calculated from least squares analysis of the log dose-response.

Assay [2] concerns the target T1, Aurora A (Homo sapiens, UniProt O14965).
T1 sequence (O14965 1-403): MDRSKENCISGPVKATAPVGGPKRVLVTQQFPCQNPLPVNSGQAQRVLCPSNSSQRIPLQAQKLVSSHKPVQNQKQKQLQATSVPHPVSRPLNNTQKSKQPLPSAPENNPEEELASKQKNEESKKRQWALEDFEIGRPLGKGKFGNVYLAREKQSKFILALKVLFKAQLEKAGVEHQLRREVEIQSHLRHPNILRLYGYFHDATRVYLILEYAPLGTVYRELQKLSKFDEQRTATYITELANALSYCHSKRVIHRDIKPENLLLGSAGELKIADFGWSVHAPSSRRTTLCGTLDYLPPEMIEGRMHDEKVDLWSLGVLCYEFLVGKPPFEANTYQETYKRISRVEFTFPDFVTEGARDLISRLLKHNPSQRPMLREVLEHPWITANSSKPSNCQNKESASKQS
Briefly: Aurora A enzyme inhibition (time-resolved fluorescence, STK substrate-2). The assay is classed as biochemical. Conditions: 1 mM ATP. In a few lines:
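Phosphorylation of biotinylated STK substrate-2 at 1 mM ATP, 1 h, Hepes buffer pH 7.4 (MgCl2, sodium orthovanadate, Triton X-100). After EDTA quench, 665/615 nm time-resolved fluorescence ratio read via europium anti-phospho antibody and SA-XL665; IC50 from exponential fit versus inhibitor concentration.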

For assay [3], the target named is T2, Aurora B (Homo sapiens, UniProt Q96GD4).
T2 construct: Active Aurora B enzyme (recombinant residues 1-344)
Briefly: Aurora B enzyme inhibition (time-resolved fluorescence, histone H3 peptide). The assay is classed as biochemical. Conditions: 1 mM ATP. In a few lines: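 IC50s came from an exponential fit of inhibition against inhibitor concentration, with phosphorylation read as the 665/615 nm time-resolved fluorescence ratio after EDTA stop using Eu-anti-phospho-H3 and SA-APC. The 1 h reaction used Aurora B 1-344 plus GST-INCENP, biotin-histone H3 1-21 peptide and 1 mM ATP in pH 7.4 HEPES buffer.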

Assay [4] has as its target KDR (Homo sapiens, UniProt P35968). Description: KDR HTRF in vitro kinase assay. The assay is classed as biochemical. Also noted: purified enzyme (His6-KDR 789-1354, MW 63 kD); His6 (N). Conditions: 1 mM ATP; read-out: KDR enzyme inhibition data (Ki). A digest of the protocol:
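His6-KDR 789-1354 (7 ng/well) with 0.5 μM biotinylated peptide substrate and 1 mM ATP in HEPES pH 7.1, MgCl2/MnCl2, 60 min at room temperature. EDTA-quenched, detected by streptavidin-XL-665 plus Eu-kryptate anti-phosphotyrosine HTRF after 3 h; IC50 from 620/665 nm ratio.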

pKi: −log10 of the molar value. Where only a bound is given, the exact number is not on record here.

T2 sequence (Q96GD4 whole entry, the tested form may be a part): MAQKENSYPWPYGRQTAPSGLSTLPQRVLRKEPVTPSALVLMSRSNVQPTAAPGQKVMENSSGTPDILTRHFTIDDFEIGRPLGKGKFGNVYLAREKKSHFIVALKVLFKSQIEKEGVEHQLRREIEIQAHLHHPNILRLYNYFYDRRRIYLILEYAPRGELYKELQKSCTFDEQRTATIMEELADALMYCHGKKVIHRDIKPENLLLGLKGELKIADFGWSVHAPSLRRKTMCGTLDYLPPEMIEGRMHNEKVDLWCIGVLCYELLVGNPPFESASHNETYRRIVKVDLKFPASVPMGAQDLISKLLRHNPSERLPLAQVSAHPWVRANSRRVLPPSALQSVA
T2 sequence (Q9NQS7 826-918 partner limits assumed): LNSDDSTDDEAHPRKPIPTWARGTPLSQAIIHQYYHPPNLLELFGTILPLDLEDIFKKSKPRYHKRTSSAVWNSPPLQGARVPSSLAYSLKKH
Chain of KDR (P35968 789-1354): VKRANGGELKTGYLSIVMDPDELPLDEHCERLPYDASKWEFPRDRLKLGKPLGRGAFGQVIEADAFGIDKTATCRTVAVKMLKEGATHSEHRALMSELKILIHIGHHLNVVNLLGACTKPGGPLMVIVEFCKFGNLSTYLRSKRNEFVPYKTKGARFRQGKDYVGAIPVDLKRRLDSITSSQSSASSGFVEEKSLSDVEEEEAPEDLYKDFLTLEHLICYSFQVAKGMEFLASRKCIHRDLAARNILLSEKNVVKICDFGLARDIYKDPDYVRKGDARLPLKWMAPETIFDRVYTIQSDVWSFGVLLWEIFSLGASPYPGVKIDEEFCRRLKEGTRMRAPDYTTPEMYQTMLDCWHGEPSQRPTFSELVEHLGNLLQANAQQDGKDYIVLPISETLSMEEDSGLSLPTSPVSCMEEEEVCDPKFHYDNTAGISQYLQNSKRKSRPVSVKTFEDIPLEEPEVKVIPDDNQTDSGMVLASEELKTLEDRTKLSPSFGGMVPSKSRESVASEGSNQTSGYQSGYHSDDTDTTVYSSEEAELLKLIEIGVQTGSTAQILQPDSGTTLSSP

With `CCn1cc(Nc2ncc(F)c(N[C@@H]3[C@H](C(N)=O)[C@H]4C=C[C@@H]3C4)n2)cn1.CCn1cc(Nc2ncc(F)c(N[C@H]3[C@@H](C(N)=O)[C@@H]4C=C[C@H]3C4)n2)cn1` (mixture of isomers) [Example 8, (1S,2S,3R,4R)-3-({2-[(1-ethyl-1H-pyrazol-4-yl)amino]-5-fluoropyrimidin-4-yl}amino)bicyclo[2.2.1]hept-5-ene-2-carboxamide and (1R,2R,3S,4S)-3-({2-[(1-ethyl-1H-pyrazol-4-yl)amino]-5-fluoropyrimidin-4-yl}amino)bicyclo[2.2.1]hept-5-ene-2-carboxamide], in assay [1], the “EC15 (concentration of inhibitor necessary to induce polyploidy in 15% of cells)” value is listed as “A (“A” represents an EC15 of less than 0.1 μM)”. Further, the pKi in assay [2] was greater than 7.00; in assay [3] it was greater than 7.00; in assay [4] it was 6.00 to 7.00.

Regarding `NC(=O)[C@@H]1[C@H]2CC[C@H](C2)[C@@H]1Nc1nc(Nc2cnn(CCO)c2)ncc1F.NC(=O)[C@H]1[C@@H]2CC[C@@H](C2)[C@H]1Nc1nc(Nc2cnn(CCO)c2)ncc1F` (mixture of isomers) [Example 14, (1R,2S,3R,4S)-3-[(5-fluoro-2-{[1-(2-hydroxyethyl)-1H-pyrazol-4-yl]amino}pyrimidin-4-yl)amino]bicyclo[2.2.1]heptane-2-carboxamide and (1S,2R,3S,4R)-3-[(5-fluoro-2-{[1-(2-hydroxyethyl)-1H-pyrazol-4-yl]amino}pyrimidin-4-yl)amino]bicyclo[2.2.1]heptane-2-carboxamide], in assay [1], the “EC15 (concentration of inhibitor necessary to induce polyploidy in 15% of cells)” value was “B (“B” represents an EC15 of between 0.1 μM and 1 μM)”. Besides, the pKi in assay [2] was 6.00 to 7.00; in assay [3], greater than 7.00; in assay [4], 5.30 to 6.00.

On to `Cc1cnc(Nc2cnn(CCO)c2)nc1N[C@@H]1[C@H](C(N)=O)[C@H]2C=C[C@@H]1C2.Cc1cnc(Nc2cnn(CCO)c2)nc1N[C@H]1[C@@H](C(N)=O)[C@@H]2C=C[C@H]1C2` (mixture of isomers) [Example 18, (1S,2S,3R,4R)-3-[(2-{[1-(2-hydroxyethyl)-1H-pyrazol-4-yl]amino}-5-methylpyrimidin-4-yl)amino]bicyclo[2.2.1]hept-5-ene-2-carboxamide and (1R,2R,3S,4S)-3-[(2-{[1-(2-hydroxyethyl)-1H-pyrazol-4-yl]amino}-5-methylpyrimidin-4-yl)amino]bicyclo[2.2.1]hept-5-ene-2-carboxamide], for which, in assay [1], the “EC15 (concentration of inhibitor necessary to induce polyploidy in 15% of cells)” value is “A (“A” represents an EC15 of less than 0.1 μM)”. Also, the pKi in assay [2], in assay [3] and in assay [4] was 6.00 to 7.00 each time.

For `Cn1cc(Nc2ncc(C(F)(F)F)c(N[C@@H]3CCC[C@@H]3C(N)=O)n2)cn1.Cn1cc(Nc2ncc(C(F)(F)F)c(N[C@H]3CCC[C@H]3C(N)=O)n2)cn1` (mixture of isomers) [Example 25, (1S,2R)-2-{[2-[(1-methyl-1H-pyrazol-4-yl)amino]-5-(trifluoromethyl)pyrimidin-4-yl]amino}cyclopentanecarboxamide and (1R,2S)-2-{[2-[(1-methyl-1H-pyrazol-4-yl)amino]-5-(trifluoromethyl)pyrimidin-4-yl]amino}cyclopentanecarboxamide], the “EC15 (concentration of inhibitor necessary to induce polyploidy in 15% of cells)” value in assay [1] is “A (“A” represents an EC15 of less than 0.1 μM)”. Also, the pKi was 6.00 to 7.00 in assay [2], greater than 7.00 in assay [3] and 6.00 to 7.00 in assay [4].

As for `Cn1cc(Nc2ncc(F)c(N[C@@H]3[C@H]4CC[C@H](C4)[C@@H]3C(N)=O)n2)cn1.Cn1cc(Nc2ncc(F)c(N[C@H]3[C@@H]4CC[C@@H](C4)[C@H]3C(N)=O)n2)cn1` (mixture of isomers) [Example 12, (1R,2S,3R,4S)-3-({5-fluoro-2-[(1-methyl-1H-pyrazol-4-yl)amino]pyrimidin-4-yl}amino)bicyclo[2.2.1]heptane-2-carboxamide and (1S,2R,3S,4R)-3-({5-fluoro-2-[(1-methyl-1H-pyrazol-4-yl)amino]pyrimidin-4-yl}amino)bicyclo[2.2.1]heptane-2-carboxamide], the “EC15 (concentration of inhibitor necessary to induce polyploidy in 15% of cells)” value in assay [1] was “B (“B” represents an EC15 of between 0.1 μM and 1 μM)”. Moreover, the values for the pKi in assay [2], in assay [3] and in assay [4] were 6.00 to 7.00, greater than 7.00 and 6.00 to 7.00, respectively.

`NC(=O)[C@@H]1[C@H](Nc2nc(Nc3cn[nH]c3)ncc2F)[C@H]2C=C[C@@H]1C2.NC(=O)[C@H]1[C@@H](Nc2nc(Nc3cn[nH]c3)ncc2F)[C@@H]2C=C[C@H]1C2` (mixture of isomers) [Example 5, (1S,2S,3R,4R)-3-{[5-fluoro-2-(1H-pyrazol-4-ylamino)pyrimidin-4-yl]amino}bicyclo[2.2.1]hept-5-ene-2-carboxamide and (1R,2R,3S,4S)-3-{[5-fluoro-2-(1H-pyrazol-4-ylamino)pyrimidin-4-yl]amino}bicyclo[2.2.1]hept-5-ene-2-carboxamide]: the “EC15 (concentration of inhibitor necessary to induce polyploidy in 15% of cells)” value in assay [1] was “B (“B” represents an EC15 of between 0.1 μM and 1 μM)”. The results for the pKi in assay [2], in assay [3] and in assay [4] were 6.00 to 7.00, greater than 7.00 and 6.00 to 7.00, respectively.

With `CNC(=O)[C@@H]1[C@H](Nc2nc(Nc3cnn(C)c3)ncc2F)[C@H]2C=C[C@@H]1C2.CNC(=O)[C@H]1[C@@H](Nc2nc(Nc3cnn(C)c3)ncc2F)[C@@H]2C=C[C@H]1C2` (mixture of isomers) [Example 9, (1S,2S,3R,4R)-3-({5-fluoro-2-[(1-methyl-1H-pyrazol-4-yl)amino]pyrimidin-4-yl}amino)-N-methylbicyclo[2.2.1]hept-5-ene-2-carboxamide and (1R,2R,3S,4S)-3-({5-fluoro-2-[(1-methyl-1H-pyrazol-4-yl)amino]pyrimidin-4-yl}amino)-N-methylbicyclo[2.2.1]hept-5-ene-2-carboxamide], the “EC15 (concentration of inhibitor necessary to induce polyploidy in 15% of cells)” value in assay [1] is “A (“A” represents an EC15 of less than 0.1 μM)”. Also, the values for the pKi in assay [2], in assay [3] and in assay [4] were 6.00 to 7.00, greater than 7.00 and less than 5.30, respectively.

As for `CCn1cc(Nc2ncc(F)c(N[C@@H]3[C@H]4CC[C@H](C4)[C@@H]3C(N)=O)n2)cn1.CCn1cc(Nc2ncc(F)c(N[C@H]3[C@@H]4CC[C@@H](C4)[C@H]3C(N)=O)n2)cn1` (mixture of isomers) [Example 13, (1R,2S,3R,4S)-3-({2-[(1-ethyl-1H-pyrazol-4-yl)amino]-5-fluoropyrimidin-4-yl}amino)bicyclo[2.2.1]heptane-2-carboxamide and (1S,2R,3S,4R)-3-({2-[(1-ethyl-1H-pyrazol-4-yl)amino]-5-fluoropyrimidin-4-yl}amino)bicyclo[2.2.1]heptane-2-carboxamide], in assay [1], the “EC15 (concentration of inhibitor necessary to induce polyploidy in 15% of cells)” value is “B (“B” represents an EC15 of between 0.1 μM and 1 μM)”. Also, the pKi in assay [2] was greater than 7.00; in assay [3], greater than 7.00; in assay [4], 6.00 to 7.00.

“(1S,2S,3R,4R)-3-({5-fluoro-2-[(1-methyl-1H-pyrazol-4-yl)amino]pyrimidin-4-yl}amino)bicyclo[2.2.1]hept-5-ene-2-carboxamide and (1R,2R,3S,4S)-3-({5-fluoro-2-[(1-methyl-1H-pyrazol-4-yl)amino]pyrimidin-4-yl}amino)bicyclo[2.2.1]hept-5-ene-2-carboxamide [Example 1]”: in assay [1], the “EC15 (concentration of inhibitor necessary to induce polyploidy in 15% of cells)” value is “B (“B” represents an EC15 of between 0.1 μM and 1 μM)”. The pKi in assay [2] is greater than 7.00; in assay [3] it was greater than 7.00; in assay [4], 6.00 to 7.00.

The values above are taken from patent US8426408B2, “Pyrimidine inhibitors of kinases” (AbbVie Inc., priority 2009, dated 2013).
